Experimental data published in ChEMBL document CHEMBL3507680, “University of Dundee, Gates Library screen for HepG2 cell viability”.

assay: Human HepG2 cell viability assay in 384 well format; type: toxicity, cell-based; design: dose 125 nL, time 70.5 hour; concentration not given beside the values; details: HepG2 cells, read-out: Inhibition

| SMILES | cytotoxicity at 70.5 h [%] |
| --- | --- |
| CCOCC1CC2(CCN(C(=O)c3ncccn3)CC2)CO1 (stereo not drawn) | -10.5 |
| Cc1nn(C)c2nc(NCCCN3CCCC(C(N)=O)C3)sc12 (stereo not drawn) | -8.69 |
| O=C(CSC1=NS(=O)(=O)c2cc(F)ccc2N1)Nc1cccc(Cl)c1 | -2.86 |
| CC1(C(=O)NCc2ccsc2)CCOCC1 | -8.16 |
| CCc1nonc1NC(=O)C(C)Oc1ccccc1F (stereo not drawn) | -10.4 |
| Cc1csc(CN(C)C(=O)c2cccc(CCC(C)(C)O)c2)n1 | -6.05 |
| Cc1cc(Cc2cccc(C(F)(F)F)c2)cc(C2CCCNC2)n1 (stereo not drawn) | 2.41 |
| CN(C(=O)c1ccn(C)n1)[C@@H]1CCC[C@@H](Oc2ccccc2)[C@@H]1O | -4.51 |
| Cc1cnc(C(=O)N2CCN(C(=O)CC(C)C)[C@@H]3CS(=O)(=O)C[C@@H]32)cn1 | -7.52 |
| CN(C)c1cc(CNCc2cccc3c2OCCO3)ccn1 | -4.63 |
| CN1CCC(NC(=O)Nc2ccc(Cl)c(F)c2)C1=O (stereo not drawn) | 2.58 |
| CCn1nc2c(cc1=O)CN(Cc1nc3ccccc3o1)CC2 | -9.68 |
| CC(C)CN1CCN(C)C(CCO)C1 (stereo not drawn) | -8.39 |
| Cn1nc(C2CCCN(C(=O)Cc3ccsc3)C2)c2nccnc21 (stereo not drawn) | -9.48 |
| Cc1nc(C2CCN(S(C)(=O)=O)CC2)nc2c1CCC(=O)N2CC(C)C | -1.36 |
| CC(C)c1nc(NC(=O)CCCn2cccc2)n(C)n1 | 3.43 |
| CC(=O)N1CCCN(CC(C)(O)c2cccc(C(F)(F)F)c2)CC1 (stereo not drawn) | -3.98 |
| C[C@@H]1CN(c2cccnn2)CC[C@@]1(O)C1CCOCC1 | -4.49 |
| NC(=O)CN(Cc1ccc(Br)cc1)C(=O)c1cccnc1 | -3.52 |
| Cc1csc(C2CCCN(C(=O)c3cnn4ccc(C)nc34)C2)n1 (stereo not drawn) | -8.34 |
| CCCC1c2cccn2CCN1S(=O)(=O)N1CCOCC1 (stereo not drawn) | -4.73 |
| O=c1c(CN2CCOCC2)coc2ccc(Cl)cc12 | -8.39 |
| NC(=O)CN(C(=O)c1cccc(C(F)(F)F)c1)C1CCCC1 | -6 |

| SMILES | cytotoxicity at 70.5 h [%] |
| --- | --- |
| Cc1cc(Br)ccc1CNC(=O)C1(O)CCSCC1 | 9.16 |
| COC(=O)C1CN(Cc2ccccc2C(C)(C)C#N)CCO1 (stereo not drawn) | -5.04 |
| COc1cc(N2C[C@H](C(=O)NC3CC3)[C@@H]3CCO[C@@H]3C2)ncn1 | -7.61 |
| CCc1nc(CSCc2csc(CS(C)(=O)=O)n2)cs1 | -1.17 |
| COC(=O)c1c(Cl)c(C)nc2onc(C)c12 | -9.83 |
| Fc1cccc(Cc2cncc(C3CCCN3C3CCOCC3)n2)c1 (stereo not drawn) | -5.65 |
| O=C(NCC1CC1)C1=NOC2(CCN(Cc3ccc(Cl)c(F)c3)C2)C1 (stereo not drawn) | -7.64 |
| CCn1nc(C)c(CCn2ccnc2-c2cc3n(n2)CCNC3)c1C | -0.934 |
| O=C(CNc1nc(C(F)(F)F)cs1)N1CCc2sccc2C1 | -8.73 |
| Cc1ccc(N2CCOCC3(CCCN(c4ncc(F)cn4)C3)C2)nn1 (stereo not drawn) | -3.89 |
| COc1cc(N2CCN(Cc3ccc(C)o3)C(CCO)C2)nc(N)n1 (stereo not drawn) | -4.16 |
| Cc1nn(C)c2cnn(CCCNS(=O)(=O)Cc3ccccc3)c12 | 10.4 |
| COc1ccccc1CC(C)CC(=O)NS(=O)(=O)C(C)C (stereo not drawn) | 9.2 |
| Cc1cnnn1Cc1nnn2c1CN(Cc1ccccn1)CCC2 | -7.24 |
| COc1nn(C)c2c1CCCN(S(=O)(=O)c1cccc(F)c1)C2 | -4.75 |
| CC(C)(CO)Nc1cc(-c2cn[nH]c2)ncn1 | -2.91 |
| Cc1nc(C)n(CC2CN(CCOc3cccc(C#N)c3)CCO2)n1 (stereo not drawn) | -6.4 |
| CSC(C)Cc1c(-c2ccccc2)ncn1CCCNc1cccnc1 (stereo not drawn) | -0.408 |
| COCC(=O)N1CCC2(CC1)CC(N1CCN(C)CC1)CO2 (stereo not drawn) | 14.5 |
| NC(=O)C1CCN(C(=O)c2cc(S(=O)(=O)N3CCCCC3)cs2)CC1 | 14.2 |
| c1cnc(N2CCOCC3(CN(Cc4ccsc4)CCO3)C2)nc1 (stereo not drawn) | -3.74 |
| COCCNC(=O)c1cc2c(s1)CCN2S(C)(=O)=O | -6.66 |
| CN1CCN(Cc2cnc3n2CCN(Cc2cccnc2)CC3)CC1 | -1.41 |

| SMILES | cytotoxicity at 70.5 h [%] |
| --- | --- |
| CCCC(=O)N1CC[C@@H]2[C@H](CC1)N(Cc1cccc(C)n1)CCS2(=O)=O | -2.09 |
| CCn1nc2c(cc1=O)CN(Cc1nc(CCOC)no1)CC2 | -16 |
| O=C(CN1CC(c2nc(Cc3ccccc3)no2)C1)NCC1CCCO1 (stereo not drawn) | -0.885 |
| COc1cc(CO)c(OC)c2c1OCO2 | -8.39 |
| CC(C)c1noc(CN2CCCN(Cc3cccs3)CC2)n1 | -25.6 |
| OCCOc1ccc(NCc2cccc3cn[nH]c23)cn1 | 0.12 |
| Cc1nn(C)c(C)c1S(=O)(=O)NCCn1ccc(-c2cccs2)n1 | -0.512 |
| CCn1c(CN2CCCN(C(=O)OC)CC2)nc2c(F)cccc21 | 18.8 |
| Cc1ccc(N2CCCC(NC(=O)CCc3ccccn3)C2=O)cc1 (stereo not drawn) | 0.525 |
| CCc1cccc(N2CCC(NC(=O)c3ccncc3)CC2)c1 | -4.49 |
| Cc1cc(C)c(CNC(=O)NCCNc2ncccn2)c(=O)[nH]1 | -12.7 |
| CCc1cc(N2CCN(c3ccc(Cl)cn3)CC2)n2nccc2n1 | -1.55 |
| O=C(CCC(=O)N1CCC(Cc2ccc(CO)cc2)C1)c1ccccc1 (stereo not drawn) | -13.8 |
| COc1ccccc1S(=O)(=O)CCOC(C)C | -3.27 |
| CCc1oc(C(=O)NC(C)c2ncn[nH]2)cc1CN1CCCC1 (stereo not drawn) | -10.5 |
| Cc1nc(N(C)C)nc(NCCc2c[nH]cn2)c1C | 23.7 |
| Cc1ccc(NC2CCN(C(=O)CCCc3ccccn3)CC2)nn1 | 9.21 |
| CCN(CCNC(=O)C1CCN(C(C)=O)CC1)c1ccccc1C | -12.4 |
| CCN(Cc1nc2c(cnn2C)c(=O)[nH]1)c1ccc(OC)c(OC)c1 | -7.15 |
| CC(=O)N1CCC(C(=O)N(CC(F)F)c2cccc(Cl)c2)CC1 | 0.334 |
| CC(C)(C)c1nccc(N2CCN(C3CCS(=O)(=O)C3)CC2)n1 (stereo not drawn) | -0.27 |
| Cc1cccc(CN2C[C@@H]3CN(C(=O)c4conc4C)C[C@@H]3C2=O)c1 | -3.16 |
| CS(=O)(=O)CCC(=O)NC(Cc1ccccc1)C1CC1 (stereo not drawn) | -4.37 |

| SMILES | cytotoxicity at 70.5 h [%] |
| --- | --- |
| CS(=O)(=O)Cc1ccc(Cl)c(NCc2noc(C3CC3)n2)c1 | 0.67 |
| CCc1nccc(CN2CCC(CNC(=O)[C@H]3CC[C@H](C)CC3)C2)n1 (stereo partly drawn) | 27.6 |
| COCCCNC(=O)Nc1ccc(F)c(C(N)=O)c1 | 0.915 |
| c1cc(C[C@H]2[C@H](N3CCOCC3)CCN2Cc2ccoc2)ccn1 | -11.4 |
| CCNc1cc2c(nn1)CCN(C(=O)c1ccc3cc[nH]c3c1)C2 | 2.8 |
| O=C1NCCCCC1Sc1ccc(F)cc1F (stereo not drawn) | 7.77 |
| c1cnc(N2CCCC(c3cc4cccnc4[nH]3)C2)nc1 (stereo not drawn) | -8.49 |
| O=C(NCCc1ccncc1)[C@H]1C[C@@H]2CCN(c3nncs3)C[C@H]2O1 | -11.9 |
| NC(=O)N1CCC(NCc2cc(Br)ccc2Cl)CC1 | -1.95 |
| COc1cc(N2C[C@@H]3COC[C@]3(COCc3ccccn3)C2)ncn1 | -4.79 |
| COCCSc1ccc(-n2ccnc2)nn1 | 26.4 |
| CCc1n[nH]c(C2CN(CCS(C)(=O)=O)CCO2)n1 (stereo not drawn) | -0.712 |
| COC(=O)c1cccn1C1CCN(C(=O)c2cc(F)ccc2F)CC1 | -1.51 |
| CN(CCOc1cccc(F)c1)Cc1nc2c(cnn2C)c(=O)[nH]1 | -8.53 |
| COCC1CN(c2ccc(C)nn2)Cc2cnn(CC3CCOCC3)c21 (stereo not drawn) | -6.71 |
| Cc1ccc(Cl)cc1C(=O)N1CCC2(CC1)c1ccccc1[C@@H](N)[C@@H]2O | 15.9 |
| Fc1ccc(OCCCN2CCOC(Cn3cncn3)C2)cc1 (stereo not drawn) | -5.61 |
| O=C1NC2(CCCN(C(=O)CCn3cccn3)C2)Oc2ccccc21 (stereo not drawn) | 1.47 |
| CC(C)C(=O)N(C)Cc1nc(N2CCCC2)ncc1-c1ccncc1 | -6.45 |
| CCCc1cc(C(=O)N(Cc2cccnc2)C[C@@H]2CCC(=O)N2)no1 | -6.41 |
| CCOC(=O)NCCC(=O)NCc1ccnc(Oc2ccc(F)cc2)c1 | -1.77 |
| COCCN1CCC(c2cncc(-c3ccccc3C)n2)CC1 | -4.28 |
| Oc1ccc(N(CCc2ccccc2)CCn2cncn2)cc1 | 7.13 |

| SMILES | cytotoxicity at 70.5 h [%] |
| --- | --- |
| CC(C)N(C)Cc1nnc2n1CCN(Cc1ccncc1)CC2 | -3.24 |
| Cc1nc(CCNc2nc(N(C)C)nc3c2CCCC3)cc(=O)[nH]1 | -10.9 |
| CCC(CN1CCCCC1)NC(=O)C1(c2ccc(F)cc2)CC1 (stereo not drawn) | -7.64 |
| CCCc1cc(CNC2CCN(c3nc(C)cc(C)n3)CC2)on1 | -5.05 |
| CC(C)(C)c1n[nH]cc1CN1CCc2nc3ccsc3c(=O)n2CC1 | 12.1 |
| O=C(Cc1ccc(F)cc1)N1C[C@H]2CCN[C@H]2C1 | -5 |
| c1cnn(CC2CN(c3ncnc4c3CCC4)CCO2)c1 (stereo not drawn) | -9.89 |
| CN(C)c1cc2c(nn1)CCN(C(=O)c1cc3ccccc3[nH]c1=O)C2 | -15.9 |
| Cc1nc(C2CCCN(C(=O)c3c[nH]c(C(C)C)n3)C2)no1 (stereo not drawn) | -2.72 |
| Cc1nnsc1C(=O)NCCNS(=O)(=O)c1cccs1 | 6.87 |
| Cc1cc(C)n(CC2(CNC(=O)C(c3ccc(F)cc3)N(C)C)CC2)n1 (stereo not drawn) | -1.88 |
| CC(NC(=O)NCCNc1ncccn1)c1cccs1 (stereo not drawn) | 1.09 |
| CS(=O)(=O)N1C[C@H](C(=O)Nc2cnccn2)C[C@H]2OCC[C@H]21 | 24.9 |
| O=C(NCC1CCC2(CC1)OCCO2)c1cccc(-n2cccn2)c1 | 19.6 |
| Cc1nc(C)n(CC2CCCCN2CCC(=O)Nc2cc(C)on2)n1 (stereo not drawn) | -3.96 |
| Cc1ccc(N2CCCN(C(=O)c3cc(CC(C)C)n[nH]3)CC2)nn1 | 12.9 |
| CCC(C)NC(=O)NCc1cc2n(n1)CCCN(C1CCCCC1)C2 (stereo not drawn) | 4.95 |
| CN(CCc1ccc2c(c1)CCO2)CC1CCS(=O)(=O)C1 (stereo not drawn) | -9.73 |
| CC(C)SCC(=O)N1CCCn2nc(C(=O)Nc3ccccc3)cc2C1 | 6.99 |
| CN(C)c1cc(C(=O)NC2(c3cccc(F)c3)CCOCC2)ccn1 | -1.02 |
| COc1ccc2nc(CNC(=O)c3cc(C(C)C)no3)[nH]c2c1 | 39.1 |
